The results in this text go back to article PMC3448056, “2-Benzamido-N-(1H-benzo[d]imidazol-2-yl)thiazole-4-carboxamide derivatives as potent inhibitors of CK1δ/ε” (Amino Acids, 2012).

Common to all, as to format: biochemical
One assay addresses T1, CK1δkd (Rattus norvegicus, UniProt Q06486).
T1 construct: Recombinant CK1δ kinase domain (CK1δkd, NEB, Frankfurt am Main, Germany); purchased NEB, Frankfurt am Main, Germany
T1 sequence (Q06486 9-277 limits assumed): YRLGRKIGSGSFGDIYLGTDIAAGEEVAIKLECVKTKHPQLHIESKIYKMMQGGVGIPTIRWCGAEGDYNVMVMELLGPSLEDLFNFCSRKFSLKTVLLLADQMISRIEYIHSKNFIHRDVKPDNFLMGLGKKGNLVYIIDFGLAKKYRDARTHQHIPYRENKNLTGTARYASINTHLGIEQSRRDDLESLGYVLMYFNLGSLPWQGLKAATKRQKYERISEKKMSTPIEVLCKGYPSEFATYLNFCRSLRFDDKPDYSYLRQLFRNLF
The experiment in a line: In vitro kinase assay, CK1δ kinase domain. As to conditions: for activity against CK1δkd (in words, SAR discussion): kinase assays using a CK1 specific substrate.

Another assay deals with T2, GST-rat CK1δ (Rattus norvegicus, UniProt Q06486).
T2 construct: made in house; host or cells: bacteria (pGEX-2T)
T2 sequence (Q06486 whole entry): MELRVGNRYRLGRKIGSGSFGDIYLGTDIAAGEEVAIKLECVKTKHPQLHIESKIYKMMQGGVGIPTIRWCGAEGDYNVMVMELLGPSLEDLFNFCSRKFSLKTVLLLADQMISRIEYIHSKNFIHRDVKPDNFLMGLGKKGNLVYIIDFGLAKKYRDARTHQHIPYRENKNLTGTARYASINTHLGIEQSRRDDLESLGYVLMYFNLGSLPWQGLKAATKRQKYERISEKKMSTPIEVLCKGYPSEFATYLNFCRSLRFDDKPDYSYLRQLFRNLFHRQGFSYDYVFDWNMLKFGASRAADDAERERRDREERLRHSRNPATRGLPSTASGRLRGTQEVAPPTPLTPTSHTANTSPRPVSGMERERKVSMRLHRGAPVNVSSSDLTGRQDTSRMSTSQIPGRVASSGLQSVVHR
The experiment in a line: In vitro kinase assay, GST-rat CK1δ.

The target of a further assay is T3, human CK1ε (Homo sapiens, UniProt P49674).
T3 construct: purchased Invitrogen, Karlsruhe, Germany
T3 sequence (P49674 whole entry): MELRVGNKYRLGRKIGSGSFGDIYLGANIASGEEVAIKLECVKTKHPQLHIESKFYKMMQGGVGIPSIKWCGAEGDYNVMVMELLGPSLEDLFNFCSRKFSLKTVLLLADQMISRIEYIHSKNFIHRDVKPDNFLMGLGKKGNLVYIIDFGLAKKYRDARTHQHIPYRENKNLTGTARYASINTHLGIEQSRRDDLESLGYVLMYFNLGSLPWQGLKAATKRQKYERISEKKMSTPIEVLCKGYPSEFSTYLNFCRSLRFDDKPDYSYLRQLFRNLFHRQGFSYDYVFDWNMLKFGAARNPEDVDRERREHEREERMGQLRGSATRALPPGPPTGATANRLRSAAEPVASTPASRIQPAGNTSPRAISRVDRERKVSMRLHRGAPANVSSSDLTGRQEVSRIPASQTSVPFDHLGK
The experiment in a line: In vitro kinase assay, CK1ε.

The next assay deals with T4, GST-mouse CK1δTV1 (Mus musculus, UniProt Q9DC28).
T4 construct: made in house; host or cells: bacteria (pGEX-2T)
T4 sequence (Q9DC28 whole entry): as the sequence (Q06486 whole entry) above
The assay can be described thus: In vitro kinase assay, GST-mouse CK1δTV1. As to conditions: 0.01 mM ATP, substrate GST-mouse p53^1-64; mean ± SD; read-out: IC50 (μM) GST-CK1δ TV1. An excerpt: (§1) CK1δTV1 and 2 (transcription variants 1 and 2) were PCR amplified from mouse cDNA (5′-primer TV1 and 2: 5′-[…]-3′, 3′-primer TV1: 5′-[…]-3′, 3′-primer TV2: 5′-[…]-3′) and cloned into pcDNA3.1/V5-His© TOPO® TA cloning vector (Invitrogen, Karlsruhe, Germany) before being subcloned into pGEX-2T expression vector via BamHI to generate plasmids pGEX-2T-mouse CK1δTV1 (FP1170) and pGEX-2T-mouse CK1δTV2 (FP1171).
(§2) Expression and purification of the GST-fusion proteins GST-mouse p53^1–64 (FP267), GST-rat CK1δ (FP449), GST-rat CK1δ^M82F (FP1153), GST-mouse CK1δTV1 (FP1170), and GST-mouse CK1δTV2 (FP1171) was carried out as described elsewhere (Wolff et al. [2005]). Expression of fusion proteins FP1170 and 1171 was either performed at 37°C for 2 h, or at 15°C for 14 h. FP449 and FP1153 were always expressed at 15°C for 14 h.
(§3) In vitro kinase assays were carried out in the presence of various potential inhibitors of CK1δ at an ATP concentration of 0.01 mM and dimethyl sulfoxide (DMSO) solvent control as described previously (Knippschild et al. [1996]). Where indicated higher ATP concentrations (0.05, 0.1, 0.25 and 0.5 mM) were used. The fusion protein GST-mouse p53^1−64 (FP267) was used as substrate. Recombinant CK1δ kinase domain (CK1δkd, NEB, Frankfurt am Main, Germany), GST-rat CK1δ (FP449), GST-rat CK1δ^M82F (FP1153), GST-mouse CK1δTV1, GST-mouse CK1δTV2 and recombinant human CK1ε (Invitrogen, Karlsruhe, Germany) were used as sources of enzyme. Phosphorylated proteins were separated by SDS-PAGE and the protein bands were visualized on dried gels by autoradiography. The phosphorylated protein bands were excised and quantified by Cherenkov counting.

The target in the next assay is T5, GST-mouse CK1δTV2 (Mus musculus, UniProt Q9DC28).
T5 construct: made in house; host or cells: bacteria (pGEX-2T)
T5 sequence (Q9DC28 1-409 isoform Q9DC28-2): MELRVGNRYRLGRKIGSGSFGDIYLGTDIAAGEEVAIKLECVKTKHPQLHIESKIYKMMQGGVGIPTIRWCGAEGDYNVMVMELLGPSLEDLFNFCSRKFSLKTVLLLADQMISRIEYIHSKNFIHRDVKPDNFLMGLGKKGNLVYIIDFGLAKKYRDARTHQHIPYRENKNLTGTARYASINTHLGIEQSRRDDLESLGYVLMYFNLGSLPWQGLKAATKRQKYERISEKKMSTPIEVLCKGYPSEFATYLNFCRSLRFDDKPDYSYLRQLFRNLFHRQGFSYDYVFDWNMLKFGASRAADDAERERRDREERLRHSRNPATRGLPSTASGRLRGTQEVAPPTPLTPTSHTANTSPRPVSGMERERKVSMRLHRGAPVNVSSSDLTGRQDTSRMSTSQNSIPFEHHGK
The assay can be described thus: In vitro kinase assay, GST-mouse CK1δTV2. As to conditions: 0.01 mM ATP, substrate GST-mouse p53^1-64; mean ± SD; read-out: IC50 (μM) GST-CK1δ TV2.
Source text: as §1, §2, §3

A further assay concerns the target T6, GST-rat CK1δ^M82F (Rattus norvegicus, UniProt Q06486, M82F).
T6 construct: made in house; host or cells: bacteria (pGEX-2T)
T6 sequence (Q06486 1-415 M82F): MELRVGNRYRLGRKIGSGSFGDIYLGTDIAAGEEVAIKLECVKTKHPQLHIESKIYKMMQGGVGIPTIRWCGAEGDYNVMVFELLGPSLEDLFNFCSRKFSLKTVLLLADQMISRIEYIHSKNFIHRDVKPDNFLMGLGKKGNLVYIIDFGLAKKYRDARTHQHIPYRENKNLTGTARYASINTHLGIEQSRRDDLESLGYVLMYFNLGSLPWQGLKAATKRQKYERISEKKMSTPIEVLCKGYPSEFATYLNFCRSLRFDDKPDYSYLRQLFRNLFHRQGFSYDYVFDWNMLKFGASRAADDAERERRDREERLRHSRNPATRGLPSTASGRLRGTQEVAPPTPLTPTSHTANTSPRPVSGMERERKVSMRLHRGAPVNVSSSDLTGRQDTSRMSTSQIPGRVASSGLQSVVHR
The assay can be described thus: In vitro kinase assay, gatekeeper mutant. As to conditions: inhibitor at its determined IC50 concentration (Fig. 7). How it is done: For the expression of wt rat CK1δ and rat CK1δ^M82F as glutathione S-transferase fusion proteins the plasmids pGEX-2T-CK1δ (FP449) (Knippschild et al. [1997]) and pGEX-2T-CK1δ^M82F (FP1153) (Peifer et al. [2009]) were used.
as §2, §3
Previously it has been shown that methionine 82 plays an important role as gatekeeper residue in the docking mode of isoxazoles to the ATP binding pocket since mutation of methionine 82 to phenylalanine blocks binding of this class of CK1δ specific inhibitors (Peifer et al. [2009]) while still binding ATP. Therefore, we now analyzed the effects of exchanging methionine 82 to phenylalanine on the ability of compounds 4, 5 and 6 to inhibit CK1δ activity.

Setting [1] is: 0.01 mM ATP, substrate GST-mouse p53^1-64, mean ± SD.
[2] abbreviates: symbol, tested range 10–0.005 μM.

Several values for one entry are separate records, joined by “and”; a condition that tells them apart may be missing. Equal values may be shown once. A value given as a limit tells only on which side of the number the result lay.

With `COC(=O)c1ccc2[nH]c(NC(=O)c3csc(NC(=O)c4ccccc4OC(F)(F)F)n3)nc2c1` [Compound 1, Methyl 2-(2-(2-(trifluoromethoxy)benzamido)-thiazole-4-carboxamido)-1H-benzo[d]imidazole-5-carboxylate], the half-inhibitory concentration (IC50) on CK1δkd (setting [1]) was 0.865 ± 0.14 µM; against GST-rat CK1δ (setting [1]), 1.97 ± 0.85 µM; against human CK1ε (setting [1]) it was 0.496 ± 0.1 µM. Besides, the “activity against CK1δkd (in words, SAR discussion)” value (from here on “activity against CK1δkd”) on CK1δkd is listed as “diminished activity”.

For the molecule `CS(=O)(=O)c1ccc2[nH]c(NC(=O)c3csc(NC(=O)c4ccccc4OC(F)(F)F)n3)nc2c1` [Compound 2, N-(5-(Methylsulfonyl)-1H-benzo[d]imidazol-2-yl)-2-(2-(trifluoromethoxy)benzamido)thiazole-4-carboxamide], the half-inhibitory concentration (IC50) is 1.23 ± 0.41 µM on CK1δkd (setting [1]) and 5.19 ± 1.14 µM at GST-rat CK1δ (setting [1]). Further, the “activity against CK1δkd” value at CK1δkd is “diminished activity”.

Regarding `Cn1c(NC(=O)c2csc(NC(=O)c3ccccc3OC(F)(F)F)n2)nc2ccccc21` [Compound 3, N-(1-Methyl-1H-benzo[d]imidazol-2-yl)-2-(2-(trifluoromethoxy)benz-amido)thiazole-4-carboxamide], the “activity against CK1δkd” value at CK1δkd is “lost”. The concentration for half-maximal inhibition (IC50) against CK1δkd (setting [2]) and at GST-rat CK1δ (setting [2]) was over 10 µM in each case.

Consider `O=C(Nc1nc(C(=O)Nc2nc3ccc(C(F)(F)F)cc3[nH]2)cs1)c1ccncc1` [Compound 4, 2-(Isonicotinamido)-N-(6-(trifluoromethyl)-1H-benzo[d]imidazol-2-yl)thiazole-4-carboxamide], for which the IC50 is 0.409 ± 0.12 µM on CK1δkd (setting [1]), 0.326 ± 0.19 µM at GST-rat CK1δ (setting [1]), 0.18 ± 0.03 µM on GST-mouse CK1δTV1 and 0.505 ± 0.04 µM on GST-mouse CK1δTV2. Moreover, the “inhibition of CK1δkd in initial screen” value against CK1δkd (inhibitor 10 μM, 10 μM ATP (Fig. 1a)) is given as “significant inhibition”. Moreover, the mode of inhibition result at CK1δkd (inhibitor at IC50 concentration, ATP 0.01-0.5 mM (Fig. 6)) is given as “ATP competitive inhibitors”. The “GST-wt CK1δ activity in the presence of inhibitor” value at GST-rat CK1δ (inhibitor at its determined IC50 concentration (Fig. 7)) is “clearly decreased”. Moreover, the “inhibition of CK1ε in initial screen” value against human CK1ε (inhibitor 10 μM, 10 μM ATP (Fig. 1b)) is “significant inhibition”. In addition, the “kinase activity of GST-CK1δ^M82F in comparison with inhibition of GST-wt CK1δ” value at GST-rat CK1δ^M82F is listed as “much more affected”.

Take `O=C(Nc1nc2ccc(C(F)(F)F)cc2[nH]1)c1csc(NC(=O)c2ccco2)n1` [Compound 7, 2-(Furan-2-carboxamido)-N-(6-(trifluoromethyl)-1H-benzo[d]imidazol-2-yl)thiazole-4-carboxamide]: the 50% inhibitory concentration (IC50) stood at 0.542 ± 0.05 µM against CK1δkd (setting [1]) and 1.04 ± 0.31 µM on GST-rat CK1δ (setting [1]).

As to `O=C(Nc1nc2ccccc2[nH]1)c1csc(NC(=O)c2ccccc2OC(F)(F)F)n1` [Compound 8, N-(1H-Benzo[d]imidazol-2-yl)-2-(2-(trifluoromethoxy)benzamido)thiazole-4-carboxamide], the IC50 was determined as 1.12 ± 0.19 µM at CK1δkd (setting [1]) and 0.935 ± 0.55 µM against GST-rat CK1δ (setting [1]).

With `O=C(Nc1nc2ccccc2s1)c1csc(NC(=O)c2ccccc2OC(F)(F)F)n1` [Compound 9, 2-(2-Trifluoromethoxy-benzoylamino)-thiazole-4-carboxylic acid benzothiazol-2-ylamide], the half-inhibitory concentration (IC50) was 1.12 µM and 0.73 µM against CK1δkd (setting [1]); 1.19 ± 0.39 µM against GST-rat CK1δ (setting [1]).

For `O=C(Nc1nc2ccccc2o1)c1csc(NC(=O)c2ccccc2OC(F)(F)F)n1` [Compound 10, N-(Benzo[d]oxazol-2-yl)-2-(2-(trifluoromethoxy)benzamido)thiazole-4-carboxamide], the half-maximal inhibitory concentration (IC50) was found to be 0.647 ± 0.04 µM at CK1δkd (setting [1]) and 0.991 ± 0.21 µM on GST-rat CK1δ (setting [1]). For the same molecule, the “activity against CK1δkd” value at CK1δkd was “kinase activity was even more decreased”.
